Measured values: PubChem BioAssay AID2060510 (Molecular Pharmacology Branch, DTP, NCI, 2025)

System: 439559-082-T-J2-PDC spheroids viability
Assay: Anticancer human tumor 439559-082-T-J2-PDC patient-derived colon adenocarcinoma cell line growth inhibition [GQUAD]
Conditions: for IC50: curve of first compound; for viability, T/C: stronger effect = lower value; active = viability on the fitted dose curve at most 10% of control; inactive = the rest
Outline: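 Tumor cells were grown as complex spheroids with HUVEC endothelial cells and mesenchymal stem cells as stroma. G-quadruplex stabilizers were combined with targeted agents over half-log dilutions from near the clinical Cmax, or from 10 microM.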

[1] = second compound 0.0316 µM, first compound 0.0316 µM
[2] = second compound 0.0316 µM, first compound 0.1 µM
[3] = second compound 0.0316 µM, first compound 0.316 µM
[4] = second compound 0.0316 µM, first compound 1 µM
[5] = second compound 0.0316 µM, first compound 3.16 µM
[6] = second compound 0.0316 µM, first compound 10 µM
[7] = second compound 0.1 µM, first compound 0.0316 µM
[8] = second compound 0.1 µM, first compound 0.1 µM
[9] = second compound 0.1 µM, first compound 0.316 µM
[10] = second compound 0.1 µM, first compound 1 µM
[11] = second compound 0.1 µM, first compound 3.16 µM
[12] = second compound 0.1 µM, first compound 10 µM
[13] = second compound 0.316 µM, first compound 0.0316 µM
[14] = second compound 0.316 µM, first compound 0.1 µM
[15] = second compound 0.316 µM, first compound 0.316 µM
[16] = second compound 0.316 µM, first compound 1 µM
[17] = second compound 0.316 µM, first compound 3.16 µM
[18] = second compound 0.316 µM, first compound 10 µM
[19] = second compound 1 µM, first compound 0.0316 µM
[20] = second compound 1 µM, first compound 0.1 µM
[21] = second compound 1 µM, first compound 0.316 µM
[22] = second compound 1 µM, first compound 1 µM
[23] = second compound 1 µM, first compound 3.16 µM
[24] = second compound 1 µM, first compound 10 µM
[25] = second compound 3.16 µM, first compound 0.0316 µM
[26] = second compound 3.16 µM, first compound 0.1 µM
[27] = second compound 3.16 µM, first compound 0.316 µM
[28] = second compound 3.16 µM, first compound 1 µM
[29] = second compound 3.16 µM, first compound 3.16 µM
[30] = second compound 3.16 µM, first compound 10 µM
[31] = second compound 10 µM, first compound 0.0316 µM
[32] = second compound 10 µM, first compound 0.1 µM
[33] = second compound 10 µM, first compound 0.316 µM
[34] = second compound 10 µM, first compound 1 µM
[35] = second compound 10 µM, first compound 3.16 µM
[36] = second compound 10 µM, first compound 10 µM
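Note: spheroids exposed to the agents for 7 days before readout.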
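Throughout, for viability, T/C: percent of luminescence signal in DMSO vehicle wells taken as 100% viability.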

COc1cccc2c1C(=O)c1c(O)c3c(c(O)c1C2=O)CC(O)(C(=O)CO)CC3OC1CC(N)C(O)C(C)O1 (stereo unspecified) + Cc1[nH]c2ccc(F)cc2c1-c1nc2c3cccnc3c3ncccc3c2[nH]1
5.25 µM: IC50 (second compound 10 µM)
inactive: viability, T/C [1] 98.5% | viability, T/C [2] 100% | viability, T/C [3] 96.2% | viability, T/C [4] 82.1% | viability, T/C [5] 61.5% | viability, T/C [6] 54.2% | viability, T/C [7] 107% | viability, T/C [8] 99% | viability, T/C [9] 89.1% | viability, T/C [10] 87.5% | viability, T/C [11] 69.5% | viability, T/C [12] 54.1% | viability, T/C [13] 98.9% | viability, T/C [14] 95.3% | viability, T/C [15] 85.9% | viability, T/C [16] 89.2% | viability, T/C [17] 62.7% | viability, T/C [18] 50.8% | viability, T/C [19] 87.9% | viability, T/C [20] 87% | viability, T/C [21] 82.1% | viability, T/C [22] 83.2% | viability, T/C [23] 67.3% | viability, T/C [24] 56.2% | viability, T/C [25] 80.4% | viability, T/C [26] 75% | viability, T/C [27] 85.2% | viability, T/C [28] 64.2% | viability, T/C [29] 63.3% | viability, T/C [30] 49.7% | viability, T/C [31] 92.3% | viability, T/C [32] 80.3% | viability, T/C [33] 69.8% | viability, T/C [34] 68.2% | viability, T/C [35] 53.2% | viability, T/C [36] 43.9%
> 10 µM: IC50 (second compound 0.0316 µM) | IC50 (second compound 0.1 µM) | IC50 (second compound 0.316 µM) | IC50 (second compound 1 µM)
9.82 µM: IC50 (second compound 3.16 µM)

CC(C)(O)C1CCC(Nc2ccc3ncc(-c4cccc(C(F)(F)F)c4)n3n2)CC1 (stereo unspecified) + CN(C)c1ccc(Nc2c3ccc(NC(=O)CCN4CCCC4)cc3nc3cc(NC(=O)CCN4CCCC4)ccc23)cc1
1.58 µM: IC50 (second compound 10 µM)
1.66 µM: IC50 (second compound 1 µM)
inactive: viability, T/C [1] 92.7% | viability, T/C [2] 94.7% | viability, T/C [3] 94% | viability, T/C [4] 78.1% | viability, T/C [7] 117% | viability, T/C [8] 111% | viability, T/C [9] 108% | viability, T/C [10] 77.5% | viability, T/C [11] 13.9% | viability, T/C [13] 104% | viability, T/C [14] 96.9% | viability, T/C [15] 91.8% | viability, T/C [16] 90.3% | viability, T/C [17] 12.7% | viability, T/C [18] 10.6% | viability, T/C [19] 98.8% | viability, T/C [20] 101% | viability, T/C [21] 107% | viability, T/C [22] 82.1% | viability, T/C [25] 98.8% | viability, T/C [26] 101% | viability, T/C [27] 103% | viability, T/C [28] 89% | viability, T/C [29] 7.84% | viability, T/C [30] 13.6% | viability, T/C [31] 100% | viability, T/C [32] 110% | viability, T/C [33] 109% | viability, T/C [34] 77.1%
1.78 µM: IC50 (second compound 3.16 µM)
active: viability, T/C [5] 8.9% | viability, T/C [6] 9% | viability, T/C [12] 10.1% | viability, T/C [23] 7.17% | viability, T/C [24] 11.9% | viability, T/C [35] 9.39% | viability, T/C [36] 7.34%
1.82 µM: IC50 (second compound 0.316 µM)
1.65 µM: IC50 (second compound 0.1 µM)
1.6 µM: IC50 (second compound 0.0316 µM)

CC(C)n1c(=O)n(C)c2cnc3cc(F)c(-c4ccc(OCCCN5CCCCC5)nc4)cc3c21 + Cc1cnc(CNC(=O)c2c(=O)c3ccc(N4CCCN(C)CC4)nc3n3c2sc2ccccc23)cn1
inactive: viability, T/C [1] 91.2% | viability, T/C [2] 77.3% | viability, T/C [3] 88.8% | viability, T/C [4] 90.8% | viability, T/C [5] 94.2% | viability, T/C [6] 82.6% | viability, T/C [7] 77.9% | viability, T/C [8] 76.1% | viability, T/C [9] 60.8% | viability, T/C [10] 68.2% | viability, T/C [11] 71% | viability, T/C [12] 62.9% | viability, T/C [13] 73.3% | viability, T/C [14] 67.6% | viability, T/C [15] 59.1% | viability, T/C [16] 66.3% | viability, T/C [17] 71.6% | viability, T/C [18] 53% | viability, T/C [19] 71.8% | viability, T/C [20] 55.7% | viability, T/C [21] 66.7% | viability, T/C [22] 62.4% | viability, T/C [23] 62.9% | viability, T/C [24] 42.7% | viability, T/C [25] 56.9% | viability, T/C [26] 60.6% | viability, T/C [27] 67.6% | viability, T/C [28] 60.8% | viability, T/C [29] 58.1% | viability, T/C [30] 46.1% | viability, T/C [31] 59.8% | viability, T/C [32] 57.2% | viability, T/C [33] 60.3% | viability, T/C [34] 59.2% | viability, T/C [35] 58% | viability, T/C [36] 39.8%
5.99 µM: IC50 (second compound 10 µM)
> 10 µM: IC50 (second compound 0.0316 µM) | IC50 (second compound 0.1 µM) | IC50 (second compound 0.316 µM) | IC50 (second compound 1 µM) | IC50 (second compound 3.16 µM)
